Measurements taken from patent US12343326B2, “Psychoactive medicines and their use for treating psychiatric and neurological conditions and disorders” (Transcend Therapeutics, Inc., priority 2021, dated 2025).

How the values were obtained:
Assay in all cases: β-arrestin based GPCR screen (PathHunter / GPCRmax), antagonist mode
168 GPCRs [1] = target: T1, 168 GPCRs (Homo sapiens, UniProt P08173); details: CHRM4, Antagonist
T1 sequence (P08173 1-479): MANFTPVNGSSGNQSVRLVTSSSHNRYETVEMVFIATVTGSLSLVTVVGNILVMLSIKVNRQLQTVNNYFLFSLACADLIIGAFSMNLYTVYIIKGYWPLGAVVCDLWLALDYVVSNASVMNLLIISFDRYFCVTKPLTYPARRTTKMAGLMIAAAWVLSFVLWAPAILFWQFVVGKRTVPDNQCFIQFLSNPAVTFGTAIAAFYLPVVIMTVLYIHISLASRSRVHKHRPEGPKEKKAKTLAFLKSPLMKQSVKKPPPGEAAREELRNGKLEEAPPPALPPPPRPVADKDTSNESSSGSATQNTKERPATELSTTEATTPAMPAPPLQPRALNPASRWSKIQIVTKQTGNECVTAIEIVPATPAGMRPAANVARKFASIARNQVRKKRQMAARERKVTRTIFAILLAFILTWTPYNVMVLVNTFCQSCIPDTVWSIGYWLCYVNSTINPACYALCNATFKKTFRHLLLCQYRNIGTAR

168 GPCRs [2] = target: 168 GPCRs (Homo sapiens, UniProt P08908); details: HTR1A
Sequence of 168 GPCRs (Homo sapiens, UniProt P08908) (P08908 whole entry): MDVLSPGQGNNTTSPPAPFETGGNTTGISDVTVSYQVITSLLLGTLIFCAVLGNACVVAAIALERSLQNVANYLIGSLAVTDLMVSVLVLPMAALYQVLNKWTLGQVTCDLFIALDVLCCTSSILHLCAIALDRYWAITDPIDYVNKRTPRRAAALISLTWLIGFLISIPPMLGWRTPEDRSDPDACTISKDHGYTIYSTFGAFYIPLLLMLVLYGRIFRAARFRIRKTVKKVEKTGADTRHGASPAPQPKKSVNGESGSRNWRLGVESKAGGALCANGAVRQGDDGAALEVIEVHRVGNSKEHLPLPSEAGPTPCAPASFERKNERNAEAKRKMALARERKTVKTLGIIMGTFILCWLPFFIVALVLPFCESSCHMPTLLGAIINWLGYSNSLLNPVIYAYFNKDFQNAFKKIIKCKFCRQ

168 GPCRs [3] = target: 168 GPCRs (Homo sapiens, UniProt P21730); details: C5AR1, Antagonist
Sequence of 168 GPCRs (Homo sapiens, UniProt P21730) (P21730 whole entry): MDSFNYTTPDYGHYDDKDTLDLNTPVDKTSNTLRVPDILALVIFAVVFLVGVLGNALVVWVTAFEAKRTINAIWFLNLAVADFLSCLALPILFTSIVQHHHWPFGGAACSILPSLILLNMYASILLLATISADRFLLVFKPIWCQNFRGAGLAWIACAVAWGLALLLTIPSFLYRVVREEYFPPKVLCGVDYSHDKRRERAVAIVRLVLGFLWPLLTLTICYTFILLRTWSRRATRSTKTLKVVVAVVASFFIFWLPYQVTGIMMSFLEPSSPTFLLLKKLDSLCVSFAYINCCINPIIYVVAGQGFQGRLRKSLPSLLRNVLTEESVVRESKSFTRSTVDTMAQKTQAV

168 GPCRs [4] = target: 168 GPCRs (Homo sapiens, UniProt P25103)
Sequence of 168 GPCRs (Homo sapiens, UniProt P25103) (P25103 whole entry): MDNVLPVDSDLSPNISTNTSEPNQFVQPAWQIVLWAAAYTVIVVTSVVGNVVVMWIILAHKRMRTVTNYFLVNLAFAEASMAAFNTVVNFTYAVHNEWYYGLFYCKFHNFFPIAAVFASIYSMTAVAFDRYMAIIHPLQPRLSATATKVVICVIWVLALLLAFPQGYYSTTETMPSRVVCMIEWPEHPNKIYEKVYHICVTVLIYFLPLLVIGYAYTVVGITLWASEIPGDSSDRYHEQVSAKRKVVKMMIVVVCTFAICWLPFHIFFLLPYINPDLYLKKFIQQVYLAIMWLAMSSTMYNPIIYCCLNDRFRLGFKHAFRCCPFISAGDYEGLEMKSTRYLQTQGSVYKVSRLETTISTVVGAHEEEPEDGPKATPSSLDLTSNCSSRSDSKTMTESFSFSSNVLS

168 GPCRs [5] = target: T2, 168 GPCRs (Homo sapiens, UniProt P32248); details: CCR7, Antagonist
T2 sequence (P32248 25-378): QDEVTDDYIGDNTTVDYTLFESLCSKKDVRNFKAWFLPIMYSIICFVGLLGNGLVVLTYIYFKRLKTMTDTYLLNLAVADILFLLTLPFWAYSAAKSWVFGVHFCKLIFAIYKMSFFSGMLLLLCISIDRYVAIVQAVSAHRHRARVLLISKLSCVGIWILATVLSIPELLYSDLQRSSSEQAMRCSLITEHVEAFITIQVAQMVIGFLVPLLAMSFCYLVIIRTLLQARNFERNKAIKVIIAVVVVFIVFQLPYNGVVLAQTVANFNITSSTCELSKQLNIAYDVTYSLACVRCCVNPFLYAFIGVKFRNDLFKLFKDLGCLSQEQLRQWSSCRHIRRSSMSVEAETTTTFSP

168 GPCRs [6] = target: 168 GPCRs (Homo sapiens, UniProt P32302)
168 GPCRs [7] = target: 168 GPCRs (Homo sapiens, UniProt P34998)
Sequence of 168 GPCRs (Homo sapiens, UniProt P34998) (P34998 24-415): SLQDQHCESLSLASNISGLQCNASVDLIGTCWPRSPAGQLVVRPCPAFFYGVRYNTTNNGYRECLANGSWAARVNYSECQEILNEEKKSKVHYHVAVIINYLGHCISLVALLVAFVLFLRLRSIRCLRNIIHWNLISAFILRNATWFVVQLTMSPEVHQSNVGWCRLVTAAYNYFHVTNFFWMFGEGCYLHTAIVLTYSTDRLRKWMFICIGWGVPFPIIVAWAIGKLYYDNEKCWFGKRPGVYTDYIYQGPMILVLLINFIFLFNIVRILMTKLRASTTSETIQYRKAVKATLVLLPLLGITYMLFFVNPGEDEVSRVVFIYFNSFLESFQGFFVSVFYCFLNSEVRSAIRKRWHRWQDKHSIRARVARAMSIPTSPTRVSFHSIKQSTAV

168 GPCRs [8] = target: 168 GPCRs (Homo sapiens, UniProt P35462)
Sequence of 168 GPCRs (Homo sapiens, UniProt P35462) (P35462 whole entry): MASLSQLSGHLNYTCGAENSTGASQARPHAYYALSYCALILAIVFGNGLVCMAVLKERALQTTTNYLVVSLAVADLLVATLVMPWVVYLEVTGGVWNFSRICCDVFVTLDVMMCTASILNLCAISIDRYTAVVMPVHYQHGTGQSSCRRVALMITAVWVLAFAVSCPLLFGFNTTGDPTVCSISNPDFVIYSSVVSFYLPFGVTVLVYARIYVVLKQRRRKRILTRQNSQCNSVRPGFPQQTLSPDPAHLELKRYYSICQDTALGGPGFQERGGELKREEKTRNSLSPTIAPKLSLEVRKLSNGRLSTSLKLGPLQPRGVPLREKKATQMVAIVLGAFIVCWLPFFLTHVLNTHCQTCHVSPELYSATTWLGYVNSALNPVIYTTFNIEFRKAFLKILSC

168 GPCRs [9] = target: 168 GPCRs (Homo sapiens, UniProt P37288); details: AVPR1A, Antagonist
Sequence of 168 GPCRs (Homo sapiens, UniProt P37288) (P37288 whole entry): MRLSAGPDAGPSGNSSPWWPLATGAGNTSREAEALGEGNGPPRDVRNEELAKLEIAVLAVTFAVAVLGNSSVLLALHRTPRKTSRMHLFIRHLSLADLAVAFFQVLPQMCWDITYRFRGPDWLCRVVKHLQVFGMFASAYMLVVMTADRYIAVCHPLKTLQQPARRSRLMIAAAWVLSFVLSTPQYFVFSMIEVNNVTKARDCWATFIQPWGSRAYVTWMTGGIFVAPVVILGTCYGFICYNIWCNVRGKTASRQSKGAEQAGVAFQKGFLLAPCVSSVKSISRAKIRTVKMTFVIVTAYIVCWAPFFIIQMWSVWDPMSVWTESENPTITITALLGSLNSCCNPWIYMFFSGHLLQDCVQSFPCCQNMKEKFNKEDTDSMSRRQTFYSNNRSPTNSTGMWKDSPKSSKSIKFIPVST

168 GPCRs [10] = target: 168 GPCRs (Homo sapiens, UniProt P43220); details: GLP1R
Sequence of 168 GPCRs (Homo sapiens, UniProt P43220) (P43220 24-463): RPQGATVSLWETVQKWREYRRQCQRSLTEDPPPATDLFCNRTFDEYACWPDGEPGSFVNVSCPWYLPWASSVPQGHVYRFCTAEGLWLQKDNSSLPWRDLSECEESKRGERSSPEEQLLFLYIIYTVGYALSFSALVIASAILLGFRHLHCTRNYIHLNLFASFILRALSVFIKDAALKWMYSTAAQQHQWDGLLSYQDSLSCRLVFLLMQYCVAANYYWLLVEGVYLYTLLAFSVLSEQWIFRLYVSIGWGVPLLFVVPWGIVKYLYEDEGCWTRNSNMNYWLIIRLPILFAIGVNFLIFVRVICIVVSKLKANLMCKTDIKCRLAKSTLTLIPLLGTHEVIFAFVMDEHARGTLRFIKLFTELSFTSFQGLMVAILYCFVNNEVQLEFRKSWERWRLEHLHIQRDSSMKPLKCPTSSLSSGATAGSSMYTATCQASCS

168 GPCRs [11] = target: 168 GPCRs (Homo sapiens, UniProt P47900)
168 GPCRs [12] = target: 168 GPCRs (Homo sapiens, UniProt Q8TDS4); details: GPR109A
Sequence of 168 GPCRs (Homo sapiens, UniProt Q8TDS4) (Q8TDS4 whole entry): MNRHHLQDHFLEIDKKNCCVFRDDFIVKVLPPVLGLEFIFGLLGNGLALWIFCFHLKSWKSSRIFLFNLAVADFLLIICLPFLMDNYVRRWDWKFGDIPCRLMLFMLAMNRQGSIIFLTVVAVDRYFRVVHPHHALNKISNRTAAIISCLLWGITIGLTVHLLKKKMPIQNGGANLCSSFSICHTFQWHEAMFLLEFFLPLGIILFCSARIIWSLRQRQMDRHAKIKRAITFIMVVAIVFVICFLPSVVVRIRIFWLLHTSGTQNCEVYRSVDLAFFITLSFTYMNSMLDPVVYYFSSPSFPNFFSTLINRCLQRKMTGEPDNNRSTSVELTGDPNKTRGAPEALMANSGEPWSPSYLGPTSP

168 GPCRs [13] = target: 168 GPCRs (Homo sapiens, UniProt Q99500)
Sequence of 168 GPCRs (Homo sapiens, UniProt Q99500) (Q99500 whole entry): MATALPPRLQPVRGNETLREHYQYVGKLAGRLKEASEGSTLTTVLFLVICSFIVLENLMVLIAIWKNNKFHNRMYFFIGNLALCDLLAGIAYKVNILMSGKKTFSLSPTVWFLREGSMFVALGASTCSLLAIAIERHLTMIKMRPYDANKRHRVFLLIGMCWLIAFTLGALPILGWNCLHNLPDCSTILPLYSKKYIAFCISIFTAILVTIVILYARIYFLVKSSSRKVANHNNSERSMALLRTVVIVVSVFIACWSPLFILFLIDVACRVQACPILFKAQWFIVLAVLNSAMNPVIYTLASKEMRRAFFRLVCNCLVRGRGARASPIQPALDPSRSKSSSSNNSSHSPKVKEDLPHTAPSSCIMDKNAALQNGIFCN

168 GPCRs [14] = target: 168 GPCRs (Homo sapiens, UniProt Q99705)
168 GPCRs [15] = target: 168 GPCRs (Homo sapiens, UniProt Q99788); details: CMKLR1, Antagonist
Sequence of 168 GPCRs (Homo sapiens, UniProt Q99788) (Q99788 whole entry): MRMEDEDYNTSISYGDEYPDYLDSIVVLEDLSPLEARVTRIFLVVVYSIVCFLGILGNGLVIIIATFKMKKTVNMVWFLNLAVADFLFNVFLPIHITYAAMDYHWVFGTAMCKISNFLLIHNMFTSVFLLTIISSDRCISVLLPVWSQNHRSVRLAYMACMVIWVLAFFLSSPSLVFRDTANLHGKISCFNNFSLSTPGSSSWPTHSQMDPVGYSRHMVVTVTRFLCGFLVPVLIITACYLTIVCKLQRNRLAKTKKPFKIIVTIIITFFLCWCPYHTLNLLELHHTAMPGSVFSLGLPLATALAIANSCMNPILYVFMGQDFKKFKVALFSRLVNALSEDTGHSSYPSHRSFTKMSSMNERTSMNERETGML

168 GPCRs [16] = target: 168 GPCRs (Homo sapiens, UniProt Q9GZQ6)
Sequence of 168 GPCRs (Homo sapiens, UniProt Q9GZQ6) (Q9GZQ6 whole entry): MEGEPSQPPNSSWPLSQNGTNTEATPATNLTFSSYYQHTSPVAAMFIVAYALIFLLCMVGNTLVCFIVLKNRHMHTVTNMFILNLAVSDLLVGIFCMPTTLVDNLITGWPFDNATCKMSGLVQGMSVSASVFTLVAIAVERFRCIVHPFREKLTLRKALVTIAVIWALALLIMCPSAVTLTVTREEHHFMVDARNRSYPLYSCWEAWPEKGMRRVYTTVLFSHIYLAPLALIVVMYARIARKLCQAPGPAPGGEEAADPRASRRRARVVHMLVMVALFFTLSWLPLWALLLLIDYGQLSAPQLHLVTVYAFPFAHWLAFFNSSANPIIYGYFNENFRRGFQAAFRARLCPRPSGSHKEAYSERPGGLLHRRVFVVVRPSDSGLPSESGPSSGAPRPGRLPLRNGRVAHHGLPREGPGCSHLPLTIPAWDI

168 GPCRs [17] = target: 168 GPCRs (Homo sapiens, UniProt Q9HBW0)
Sequence of 168 GPCRs (Homo sapiens, UniProt Q9HBW0) (Q9HBW0 whole entry): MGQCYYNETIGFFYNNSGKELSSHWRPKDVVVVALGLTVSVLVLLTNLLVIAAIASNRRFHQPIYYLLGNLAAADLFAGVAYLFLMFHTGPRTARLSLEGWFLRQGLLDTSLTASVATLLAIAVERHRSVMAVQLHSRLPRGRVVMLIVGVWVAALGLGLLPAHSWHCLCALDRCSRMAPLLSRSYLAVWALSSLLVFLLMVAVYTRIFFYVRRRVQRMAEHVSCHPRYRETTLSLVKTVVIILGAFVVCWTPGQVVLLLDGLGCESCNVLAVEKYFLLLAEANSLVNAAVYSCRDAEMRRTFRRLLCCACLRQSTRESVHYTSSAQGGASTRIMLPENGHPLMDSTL

CNC(C)C(=O)c1ccc2c(c1)OCO2 (stereo not shown) [methylone, 3,4-methylenedioxy-N-methylcathinone]
activity at 1 µM (168 GPCRs [1]; 1 uM): 10.2%
activity at 10 µM (168 GPCRs [1]; 10 uM): 6.7%
activity at 10 µM (168 GPCRs [2]; Antagonist mode, 10 uM): -6.4%
activity at 1 µM (168 GPCRs [2]; Antagonist, 1 uM): -5.2%
activity at 1 µM (168 GPCRs [3]; 1 uM): 8.9%
activity at 10 µM (168 GPCRs [3]; 10 uM): 5%
activity at 10 µM (168 GPCRs [4]; TACR1, Antagonist mode, 10 uM): 8.9%
activity at 1 µM (168 GPCRs [4]; TACR1, Antagonist, 1 uM): 15.2%
activity at 1 µM (168 GPCRs [5]; 1 uM): -8.3%
activity at 10 µM (168 GPCRs [5]; 10 uM): -3.4%
activity at 10 µM (168 GPCRs [6]; CXCR5, Antagonist mode, 10 uM): -15.1%
activity at 1 µM (168 GPCRs [6]; CXCR5, Antagonist, 1 uM): -4.3%
activity at 10 µM (168 GPCRs [7]; CRHR1, Antagonist mode, 10 uM): 0.6%
activity at 1 µM (168 GPCRs [7]; CRHR1, Antagonist, 1 uM): 1.3%
activity at 10 µM (168 GPCRs [8]; DRD3, Antagonist mode, 10 uM): -17.8%
activity at 1 µM (168 GPCRs [8]; DRD3, Antagonist, 1 uM): -12%
activity at 1 µM (168 GPCRs [9]; 1 uM): -3%
activity at 10 µM (168 GPCRs [9]; 10 uM): 2.8%
activity at 10 µM (168 GPCRs [10]; Antagonist mode, 10 uM): -0.9%
activity at 1 µM (168 GPCRs [10]; Antagonist, 1 uM): 3.4%
activity at 10 µM (168 GPCRs [11]; P2RY1, Antagonist mode, 10 uM): 14.9%
activity at 1 µM (168 GPCRs [11]; P2RY1, Antagonist, 1 uM): 14.5%
activity at 10 µM (168 GPCRs [12]; Antagonist mode, 10 uM): -0.3%
activity at 1 µM (168 GPCRs [12]; Antagonist, 1 uM): 1.4%
activity at 10 µM (168 GPCRs [13]; EDG3, Antagonist mode, 10 uM): 13.6%
activity at 1 µM (168 GPCRs [13]; EDG3, Antagonist, 1 uM): 25.8%
activity at 10 µM (168 GPCRs [14]; MCHR1, Antagonist mode, 10 uM): -18.3%
activity at 1 µM (168 GPCRs [14]; MCHR1, Antagonist, 1 uM): -12.2%
activity at 1 µM (168 GPCRs [15]; 1 uM): -0.2%
activity at 10 µM (168 GPCRs [15]; 10 uM): -5.6%
activity at 10 µM (168 GPCRs [16]; NPFFR1, Antagonist mode, 10 uM): 27.1%
activity at 1 µM (168 GPCRs [16]; NPFFR1, Antagonist, 1 uM): 32%
activity at 10 µM (168 GPCRs [17]; EDG4, Antagonist mode, 10 uM): -21%
activity at 1 µM (168 GPCRs [17]; EDG4, Antagonist, 1 uM): -10.2%
